Experimental findings from PubChem BioAssay (NCI) are described below.

“And” between values parts separate entries of the source, which are not always exact repeats. Equal values may be shown once.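 Grown in 96-well plates, cells were treated for 48 hours with each compound at five concentrations. Insufficient inhibition: endpoint recorded as highest concentration tested. GI50 = concentration required for 50% inhibition of growth. TGI marks complete inhibition of growth.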 Bounds are passed on as bounds.

Holding throughout (assay): inhibition of tumour cell growth, NCI panel, 48 h
Experiment [1] deals with MOLT-4 leukemia.
For experiment [2], the system named is TK-10 renal.
Experiment [3] deals with RXF 393 renal.
In experiment [4] the test system is UO-31 renal.
Experiment [5] has as its system LOX IMVI melanoma.
In experiment [6] the test system is OVCAR-8 ovarian.
The subject of experiment [7] is 786-0 renal.
The subject of experiment [8] is NCI-H226 lung.
The test system of experiment [9] is HOP-92 NSCLC.
Experiment [10] relates to KM12 colon.

As for `COc1ccc(-c2ccc3c(NC(=O)C4CC4)n[nH]c3n2)cc1`, the GI50 in experiment [1] was > 25 µM; in experiment [2], > 25 µM; in [3], 15 µM; in [4], > 20 µM; in [5], > 25 µM; in experiment [6] it was 11.7 µM. The GI50 in experiment [7] was > 20.1 µM; in experiment [8], > 25 µM; in experiment [9], 8.02 µM; in experiment [10], > 25 µM. Moreover, the TGI in [1], in [2], in experiment [3], in experiment [4], in experiment [5] and in [6] was > 25 µM throughout. The TGI in experiment [7], in experiment [8], in [9] and in experiment [10] was > 25 µM in each case.

In the case of `Nc1[nH]c(=O)ncc1F`, the TGI in [1], in experiment [2], in experiment [3], in experiment [4], in [5] and in [6] was > 100 µM throughout. Besides, the TGI in experiment [7], in experiment [8], in experiment [9] and in experiment [10] was > 100 µM each time.

As to `C[C@]12O[C@H](C[C@]1(O)CO)n1c3ccccc3c3c4c(c5c6ccccc6n2c5c31)CNC4=O`, the GI50 in experiment [1] is 0.0386 µM and 0.0457 µM; in [2], 0.0223 µM and 0.0189 µM; in experiment [3], 0.0385 µM and 0.0189 µM; in experiment [4] it was 0.0238 µM and 0.0286 µM; in experiment [5] it was 0.0531 µM and 0.13 µM; in [6], 0.367 µM and 0.391 µM. The GI50 in experiment [7] is 0.197 µM and 0.213 µM; in experiment [8] it was 0.267 µM and 0.272 µM; in [9] it was 0.0422 µM and 0.174 µM; in experiment [10], 0.00535 µM and < 0.01 µM. Besides, the TGI in experiment [1] was 0.451 µM and 1.18 µM; in experiment [2] it was 1.07 µM and 0.744 µM; in experiment [3], 0.622 µM and 0.649 µM; in [4], 1.08 µM and 1.29 µM; in experiment [5], 1.11 µM and 1.29 µM; in [6], > 5.35 µM and 6.53 µM. The TGI in experiment [7] was 1.45 µM and 1.89 µM; in [8], 1.79 µM and 2.05 µM; in experiment [9], 0.65 µM and 1.16 µM; in [10] it was 1.4 µM and 0.982 µM.

Turning to `COc1ccc(OC)c(-c2nc3sccn3c2/C=C2/C(=O)Nc3ccc(Cl)cc32)c1`, the GI50 in [1] is 22.1 µM; in [2], 29.9 µM; in experiment [3], 27.6 µM; in experiment [4], 23.6 µM; in [5] it was 18.2 µM; in experiment [6], 34.4 µM. In addition, the GI50 in [7] is 44.7 µM; in experiment [8], 20.8 µM; in experiment [9], 24.4 µM; in experiment [10] it was 35.8 µM. Besides, the TGI in [1] is 69.4 µM; in experiment [2] it was > 100 µM; in experiment [3], > 100 µM; in experiment [4], 81.8 µM; in experiment [5], 40.5 µM; in experiment [6] it was > 100 µM. Besides, the TGI in experiment [7] was > 100 µM; in [8], 67.3 µM; in experiment [9], > 100 µM; in [10], > 100 µM.

For the compound `O=C(c1ccccc1Nc1ccnc(C(F)(F)F)c1)N1CCN(c2cccc(Cl)c2)CC1`, the GI50 in experiment [1] was 11.9 µM; in [2], 30.8 µM; in [3], 16.3 µM; in [4], 13.7 µM; in experiment [5] it was 15.8 µM; in experiment [6], 24.4 µM. Also, the GI50 is 23.2 µM in experiment [7], 15 µM in experiment [8], 0.914 µM in experiment [9] and 25.7 µM in experiment [10]. In addition, the TGI is 44.5 µM in experiment [1]; > 100 µM in [2]; 64.8 µM in experiment [3]; 68.1 µM in [4]; 32.2 µM in experiment [5]; > 87.8 µM in experiment [6]. The TGI was > 84 µM in [7], 49.2 µM in [8], 25 µM in [9] and > 80.2 µM in experiment [10].

As to `CC#C[C@@]1(O)CCCC[C@@H]1O`, the TGI in experiment [1], in experiment [2], in experiment [3], in experiment [4], in experiment [5] and in experiment [6] was > 100 µM each time. Further, the TGI in experiment [7], in experiment [8], in experiment [9] and in experiment [10] was > 100 µM each time.

In the case of `CCOC1OCCCC1Br` (stereo not given), the TGI in [1], in experiment [2], in experiment [3], in [4], in [5] and in experiment [6] was > 100 µM in each case. Moreover, the TGI in experiment [7], in [8], in experiment [9] and in experiment [10] was > 100 µM in each case.

Turning to `CC1(C)CCC[C@]23C(=O)O[C@](O)(C(=O)C4=C[C@@](C)(/C=C/CCCc5ccc6ccc7cccc8ccc5c6c78)CC[C@@]42O)[C@@H]13`, the GI50 in [1] is 0.265 µM; in experiment [2], 0.196 µM; in experiment [3], 0.174 µM; in [4], 0.156 µM; in [5] it was 0.164 µM; in experiment [6], 0.25 µM. Also, the GI50 in [7] was 0.182 µM; in experiment [8], 0.166 µM; in experiment [9] it was 0.148 µM; in experiment [10] it was 0.154 µM. The TGI in experiment [1] was determined as 11.2 µM; in experiment [2], 0.423 µM; in experiment [3], 0.335 µM; in experiment [4], 0.291 µM; in [5], 0.31 µM; in experiment [6], 1.15 µM. Further, the TGI was 0.343 µM in [7], 0.328 µM in experiment [8], 0.302 µM in experiment [9] and 0.34 µM in experiment [10].
